Results on 15 compounds are retold here after patent US4665075A, “Derivatives of hydroxy- or amino-substituted (piperidinylalkyl)quinazolines” (Janssen Pharmaceutica N.V., priority 1985, dated 1987).

In test [1] the test system is cyanosis, gastric lesions and shock induced by compound 48/80. Particulars: rats injected with compound 48/80; cited from earlier work.
Test [2] concerns gastric lesions induced by compound 48/80. Put plainly: Test 2: Effects in gastric lesion tests; lesions induced by compound 48/80. Particulars: oral, 2 hours before compound 48/80 1 mg/kg i.v.; stomachs inspected 4 hours later. Format: in vivo, rat (male, Wistar inbred strain). On the procedure: Test 2: Effects in gastric lesion tests
The shock, followed by dead, can be avoided if the rats are pretreated with a classical H1 antagonist.
Male rats of a Wistar inbred strain, weighing 220-250 g, were starved overnight, water being available ad libitum. The test compounds were administered orally as a solution or as a suspension in aqueous medium. A control rat and a "blank" rat receive the test compound. One hour later 5-[4-(diphenylmethyl)-1-piperazinyl-methyl]-1-methyl-1H-benzimidazole-2-methanol is adhministered subcutaneously to all rats at the dose of 2.5 mg/kg. […] Five minutes after the injection the intensity of purple-blue coloration (cyanosis) of the extremities was scored as 0 (absent), + (moderate) or ++ (intense). Four hours after the intravenous injection of compound 48/80 the rats were decapitated and the stomachs were removed. Subsequently the stomachs were inspected for distension and contents (blood, fluid, food) and thoroughly rinsed. The macroscopic lesions were scored from 0 to +++, 0 corrsponding to complete absence of visible lesions and the highest score corresponding to reddish rough patches covering more than half the glandular area.
The compounds listed in table 1 are not given for the purpose of limiting the invention thereto but only to exemplify the useful pharmacological activities of all the compounds within the scope of formula (I).

For test [3], the system named is serotonin-induced contraction of the caudal artery of the rat. Put plainly: Test 1: Antagonistic activity on the effect of serotonin on the caudal artery of the rat. The note with it: rat caudal artery strips; serotonin 40 ng/ml; measured 5 minutes after adding the drug. On the procedure: Test 1: Antagonistic activity on the effect of serotonin on the caudal artery of the rat
Caudal arteries from fasted male rats (210-235 g) were used in the test. Two helical strips having a length of 5-6 cm and a width of 2 mm were obtained from each artery and mounted vertically in a 100 ml organ bath containing an oxygenated Krebs-Henseleit solution. Submaximal contractions of the arterial strips were produced by adding single doses of serotonin (40 ng/ml) to the organ bath for 2 minutes with each time an interval of 10 minutes. The amplitude of the contraction is measured before and 5 minutes after adding the drug. After washing out, the agonist was added again three times in order to see whether the contraction is restored and normalized.
In this connection the ED50 -values are the minimal concentrations of the concerned drugs which reduce the amplitude of the contraction to at least 50% of its normal value.

`CN1CCC(=C2c3ccccc3CCc3sccc32)CC1` [pizotifen]: in test [1], the “prevention of the abnormal gastric distension” value is “prevent completely”; the “prevention of the cyanosis of ears and extremities” value is listed as “prevent completely”; the “prevention of the lesions in the glandular area of the stomach” value (“prevention of the lesions” for short) is on record as “prevent completely”.

With `NC(=O)C1(N2CCCCC2)CCN(CCCC(=O)c2ccc(F)cc2)CC1` [pipamperone], in test [1], the “prevention of the abnormal gastric distension” value is “prevent completely”; the “prevention of the cyanosis of ears and extremities” value was “prevent completely”; the “prevention of the lesions” value is on record as “prevent completely”.

Turning to `CN1C[C@H](CNC(=O)OCc2ccccc2)C[C@@H]2c3cccc4c3c(cn4C)C[C@H]21` [metergoline], in test [1], the “prevention of the abnormal gastric distension” value is recorded as “prevent completely”; the “prevention of the cyanosis of ears and extremities” value was “prevent completely”; the “prevention of the lesions” value is reported as “prevent completely”.

As to `Nc1ccc2c(=O)n(CCN3CCC(C(=O)c4ccc(F)cc4)CC3)c(=O)[nH]c2c1` [Compound 12, 7-amino-3-[2-[4-(4-fluorobenzoyl)-1-piperidinyl]ethyl]-2,4(1H,3H)-quinazolinedione], the “Gastric lesion ED50 (dose at which distension of the stomach and lesions in the glandular area are completely absent in 50% of the test rats)” value in test [2] was found to be 0.04 mg/kg. Moreover, the “Caudal artery ED50 (minimal concentration which reduces the amplitude of the serotonin-induced contraction to at least 50% of its normal value)” value in test [3] is below 0.63 ng/mL.

In the case of `Nc1ccc2c(=O)n(CCCCN3CCC(C(=O)c4ccc(F)cc4)CC3)c(=O)[nH]c2c1` [Compound 8, 7-amino-3-[4-[4-(4-fluorobenzoyl)-1-piperidinyl]butyl]-2,4(1H,3H)-quinazolinedione], the “Gastric lesion ED50 (dose at which distension of the stomach and lesions in the glandular area are completely absent in 50% of the test rats)” value in test [2] was found to be 0.04 mg/kg. The “Caudal artery ED50 (minimal concentration which reduces the amplitude of the serotonin-induced contraction to at least 50% of its normal value)” value in test [3] was determined as 0.32 ng/mL.

Turning to `CC(=O)Nc1ccc2c(=O)n(CCN3CCC(C(=O)c4ccc(F)cc4)CC3)c(=S)[nH]c2c1` [Compound 19, N-[3-[2-[4-(4-fluorobenzoyl)-1-piperidinyl]ethyl]-1,2,3,4-tetrahydro-4-oxo-2-thioxo-7-quinazolinyl]acetamide], the “Gastric lesion ED50 (dose at which distension of the stomach and lesions in the glandular area are completely absent in 50% of the test rats)” value in test [2] came to 0.01 mg/kg. Also, in test [3], the “Caudal artery ED50 (minimal concentration which reduces the amplitude of the serotonin-induced contraction to at least 50% of its normal value)” value was determined as 0.32 ng/mL.

As for `CC[C@@H](CO)NC(=O)[C@@H]1C=C2c3cccc4c3c(cn4C)C[C@H]2N(C)C1` [methysergide], in test [1], the “prevention of the abnormal gastric distension” value is recorded as “prevent completely”; the “prevention of the cyanosis of ears and extremities” value was “prevent completely”; the “prevention of the lesions” value was “prevent completely”.

As for `CN1CCC(=C2c3ccccc3C=Cc3ccccc32)CC1` [cyproheptadine], in test [1], the “prevention of the abnormal gastric distension” value is on record as “prevent completely”; the “prevention of the cyanosis of ears and extremities” value is reported as “prevent completely”; the “prevention of the lesions” value is on record as “prevent completely”.

On to `CN(C)CCCSc1ccccc1NC(=O)/C=C/c1ccccc1` [cinanserin], for which, in test [1], the “prevention of the abnormal gastric distension” value is given as “prevent completely”; the “prevention of the cyanosis of ears and extremities” value was “prevent completely”; the “prevention of the lesions” value is “prevent completely”.

In the case of `Nc1ccc2c(=O)n(CCN3CCC(C(=O)c4ccc(F)cc4)CC3)c(=S)[nH]c2c1` [Compound 9, 7-amino-3-[2-[4-(4-fluorobenzoyl)-1-piperidinyl]ethyl]-2,3-dihydro-2-thioxo-4(1H)-quinazolinone], the “Gastric lesion ED50 (dose at which distension of the stomach and lesions in the glandular area are completely absent in 50% of the test rats)” value in test [2] was determined as 0.005 mg/kg. The “Caudal artery ED50 (minimal concentration which reduces the amplitude of the serotonin-induced contraction to at least 50% of its normal value)” value in test [3] worked out at 0.18 ng/mL.

With `CN1CCN2c3ccccc3Cc3ccccc3C2C1` (centres unmarked) [mianserin], in test [1], the “prevention of the abnormal gastric distension” value was “prevent completely”; the “prevention of the cyanosis of ears and extremities” value is listed as “prevent completely”; the “prevention of the lesions” value is given as “prevent completely”.

For the compound `O=C(CCCN1CCC2(CC1)C(=O)NCN2c1ccccc1)c1ccc(F)cc1` [spiperone], in test [1], the “prevention of the abnormal gastric distension” value is recorded as “prevent completely”; the “prevention of the cyanosis of ears and extremities” value is “prevent completely”; the “prevention of the lesions” value is “prevent completely”.

As to `CC(=O)Nc1ccc2c(=O)n(CCCCN3CCC(C(=O)c4ccc(F)cc4)CC3)c(=O)[nH]c2c1` [Compound 18, N-[3-[4-[4-(4-fluorobenzoyl)-1-piperidinyl]butyl]-1,2,3,4-tetrahydro-2,4-dioxo-7-quinazolinyl]-acetamide], the “Gastric lesion ED50 (dose at which distension of the stomach and lesions in the glandular area are completely absent in 50% of the test rats)” value in test [2] is 0.08 mg/kg. Further, the “Caudal artery ED50 (minimal concentration which reduces the amplitude of the serotonin-induced contraction to at least 50% of its normal value)” value in test [3] is 0.32 ng/mL.

In the case of `CC(=O)Nc1ccc2c(=O)n(CCN3CCC(C(=O)c4ccc(F)cc4)CC3)c(=O)[nH]c2c1` [Compound 22], in test [2], the “Gastric lesion ED50 (dose at which distension of the stomach and lesions in the glandular area are completely absent in 50% of the test rats)” value is listed as 0.04 mg/kg. Besides, the “Caudal artery ED50 (minimal concentration which reduces the amplitude of the serotonin-induced contraction to at least 50% of its normal value)” value in test [3] turned out to be 0.37 ng/mL.

Take `Nc1ccc2c(=O)n(CCCCN3CCC(C(=O)c4ccc(F)cc4)CC3)c(=S)[nH]c2c1` [Compound 11, 7-amino-3-[4-[4-(4-fluorobenzoyl)-1-piperidinyl]butyl]-2,3-dihydro-2-thioxo-4(1H)-quinazolinone]: in test [2], the “Gastric lesion ED50 (dose at which distension of the stomach and lesions in the glandular area are completely absent in 50% of the test rats)” value turned out to be 0.63 mg/kg. Further, in test [3], the “Caudal artery ED50 (minimal concentration which reduces the amplitude of the serotonin-induced contraction to at least 50% of its normal value)” value is below 0.63 ng/mL.
